# From patent US11213512B2, “Bis-amino acid based compound and use thereof” (THE CURATORS OF THE UNIVERSITY OF MISSOURI, priority 2016, dated 2022)
# Like-named read-outs stand apart in the source and are kept apart here.
# Key:
# Assay in all cases: MIC, CLSI/NCCLS broth microdilution
# [1] = tested on: S. aureus (ATCC Accession No. 29213); type: cell-based, Staphylococcus aureus; conditions: Staphylococcus aureus, read-out: Minimal Inhibitory Concentration (MIC) S. aureus
# Experimental: (§1) Two different strains of E. coli (Gram-negative) were used. The laboratory strain of E. coli, K-12 (ATCC Accession No. 700926), was used for preliminary MIC determinations. The tetracycline resistant strain of E. coli (Tet^R) was prepared by transforming competent JM109 E. coli (Promega) with the pBR322 plasmid (Carolina Biologicals) using the manufacturers protocol. This plasmid contains two resistance genes: the tetA gene expresses the tetracycline resistance TetA efflux pump (Sapunaric and Levy, Microbiol. 2005, 151, 2315-2322) and the amp^R gene expresses a β-lactamase enzyme (Bolivar, et al; Gene 1977, 2, 95-113) that cleaves the four membered ring of penicillin derivatives. The resulting E. coli, which we designate Tet^R E. coli, is both tetracycline and ampicillin resistant. The TetA efflux pump belongs to the major facilitator superfamily (MFS), spans the cytoplasmic membrane, and transports tetracycline from the cell cytoplasm to the periplasmic space (Thanassi, et al., J. Bacteriol. 1995, 177, 998-1007). This active efflux utilizes the proton gradient as an energy source (Levy, Antimicrob. Agents Chemother. 1992, 36, 695-703). One Gram-positive strain, S. aureus (ATCC Accession No. 29213), used for MIC study expresses the MFS type NorA efflux pump and is methicillin sensitive. MFS type efflux pumps are clinically relevant for resistance in both Gram-positive and Gram-negative bacteria (Sun, et al., Biochem. Biophys. Res. Commun. 2014, 453, 254-267). A Staphylococcus aureus 1199B strain that overexpresses the NorA efflux pump was also used to conduct checkerboard experiments (see, Example 8 below). This strain of S. aureus 1199B is resistant to both norfloxacin and ethidium bromide.
# (§2) K-12 E. coli and S. aureus were acquired from ATCC. The S. aureus strain was used in the BSL-2 facility. K-12 E. coli was grown in L. B. Miller media (Sigma-Aldrich) and S. aureus was grown in cation adjusted MHII media (Sigma-Aldrich). Tet^R E. coli was grown in L. B. Miller media containing 100 μg/mL Ampicillin.
# (§3) MIC experiments were performed as described in the Clinical and Laboratory Standards Institute (CLSI) standard microdilution protocols. Bacteria was grown overnight from one CFU in media without antibiotics. Tet^R E. coli was grown in media containing 100 μg/mL Ampicillin. On the day of experiment, bacteria were knocked back to O.D. 600 nm=0.550 in the same media. These exponential phase bacteria were then diluted in antibiotics-free media to get […]. In a 96-well plate either L. B. Miller or MHII media was added followed by serially diluted compounds 1-11, tetracycline, or ampicillin. All the tryptophan based compounds were dissolved in DMSO and the final concentration of DMSO in each well was kept constant at 0.5% (v/v).
# (§4) For the combination experiments, first, the BT or control was added to the media in the well followed by the antibiotics. The contents of the well were mixed before adding 20 μL of bacteria to get 4×10^5 CFU/mL per well. The plates were incubated at 37° C., 200 RPM for 24 hours before collecting results on the Biotek Cytation 3 plate reader. No more than three plates were stacked on top of each other at a time. Optical density of the wells was determined at λ=600 nm. Cells alone were considered as 0% inhibition and media alone was considered as 100% inhibition. Any inhibition greater than 80% was considered as the MIC. The results were reproduced three times before reporting.
# (§5) All minimum inhibitory concentration (MIC) values for compounds 1-11 were determined according to the methods prescribed by the National Committee for Clinical Laboratory Standards (NCCLS, Methods for Dilution Antimicrobial Susceptibility Tests for Bacteria that grow aerobically; National Committee for Clinical Laboratory Standards 2000, 5th Edition, M7-A5). […]
# Tet^R E. coli = type: cell-based, Escherichia coli; conditions: 24 h; for Minimal Inhibitory Concentration (MIC) E. coli Tet^R: >80% growth inhibition, 37° C., substance alone; for MIC: Escherichia coli, read-out: Minimal Inhibitory Concentration (MIC) E. coli Tet^R
# Experimental: as §1, §2, §3, §4, §5
# E. coli K12 = type: cell-based, Escherichia coli; conditions: Escherichia coli, K12, 24 h, read-out: Minimal Inhibitory Concentration (MIC) E. coli K12
# Experimental: as §1, §2, §3, §4, §5
# [2] = ATCC29213, >80% growth inhibition, 24 h, 37° C.
SMILES,"MIC [1, 2] [µM]",Minimal Inhibitory Concentration (MIC) E. coli Tet^R (Tet^R E. coli) [µM],MIC (Tet^R E. coli) [µM],MIC (E. coli K12) [µM],"MIC ([1]; ATCC29213, 24 h) [µM]"
"Cl.Cl.N[C@@H](Cc1c[nH]c2ccccc12)C(=O)Nc1cccc(NC(=O)[C@@H](N)Cc2c[nH]c3ccccc23)c1 [Compound 2, (2S,2′S)-1,1′-(1,3-Phenylenebis(azanediyl))bis(3-(1H-indol-3-yl)-1-oxopropan-2-aminium) chloride]",32,48 ± 8,48 ± 8,64,
"Cl.Cl.N[C@H](Cc1c[nH]c2ccccc12)C(=O)Nc1cccc(NC(=O)[C@H](N)Cc2c[nH]c3ccccc23)c1 [Compound 3, (2R,2′R)-1,1′-(1,3-Phenylenebis(azanediyl))bis(3-(1H-indol-3-yl)-1-oxopropan-2-aminium) chloride]",32,28 ± 4,28 ± 4,64,
"Cl.Cl.N[C@@H](Cc1c[nH]c2ccccc12)C(=O)Nc1ccccc1NC(=O)[C@@H](N)Cc1c[nH]c2ccccc12 [Compound 5, (2S,2′S)-1,1′-(1,2-Phenylenebis(azanediyl))bis(3-(1H-indol-3-yl)-1-oxopropan-2-aminium) chloride]",32,,56 ± 8,64,
"Cl.Cl.N[C@@H](Cc1c[nH]c2ccccc12)C(=O)Nc1ccc(NC(=O)[C@@H](N)Cc2c[nH]c3ccccc23)cc1 [Compound 6, (2S,2′S)-1,1′-(1,4-Phenylenebis(azanediyl))bis(3-(1H-indol-3-yl)-1-oxopropan-2-aminium) chloride]",128,,120 ± 14,128,
"Cl.Cl.N[C@@H](Cc1c[nH]c2ccccc12)C(=O)NCCCNC(=O)[C@@H](N)Cc1c[nH]c2ccccc12 [Compound 7, (2S,2′S)-1,1′-(Propane-1,3-diylbis(azanediyl))bis(3-(1H-indol-3-yl)-1-oxopropan-2-aminium) chloride]",,,> 128,> 128,> 128
"Cl.Cl.N[C@H](Cc1c[nH]c2ccccc12)C(=O)NCCCCCCCCCCCCNC(=O)[C@@H](N)Cc1c[nH]c2ccccc12 [Compound 10, (S)-1-((12-((R)-2-Ammonio-3-(1H-indol-3-yl)propanamido)dodecyl)amino)-3-(1H-indol-3-yl)-1-oxopropan-2-aminium chloride]",4,,10 ± 2,8,
